Among the data in patent publication US4689326A, “Process for controlling hyperlipidemia” (Research Corporation, priority 1985, dated 1987) are response vs control in vivo values, retold here.

Type in all cases: in vivo, CF1 male mice
In experiment [1] the test system is serum cholesterol. The experiment in a line: Testing of Normal Mice: serum cholesterol (modified Liebermann-Burchard), Example 7. To be noted: Mus musculus, 20 mg/kg/day ip. As to the method:
(§1) Suspensions of Compounds Nos. 1-9 were prepared wherein the compounds were suspended in an aqueous 1% carboxymethylcelluose solution, homogenized and administered to CF1 male mice, each weighing approximately 25 grams, intraperitoneally on a daily basis for 16 days. The dosage was, with the exception of one compound, 20 milligrams of the active compound per kilogram of mouse weight per day. On days 9 and 16 blood was obtained by tail vein bleeding. The blood serum was separated by centrifugation for three minutes. Serum cholesterol levels were determined by a modification of the Liebermann-Burchard reaction. Serum was also collected on day 16 and the triglycerides content was determined by a commercial kit, BioDynamics/bnc Single Vile Colorimetric Method 348201. Each compound was tested on a group of six mice.
(§2) In addition to the above-described treated mice, untreated control groups of six mice were similarly tested on days 9 and 14 or 16 to determine their serum cholesterol and triglycerides blood levels. Table 5 reports the percent control, based on the serum cholesterol and serum triglyceride levels of the treated mice compared to the untreated controls. Table 5 also includes the standard deviation indicating the level of confidence of these numbers.
(§3) Example 7 was repeated substituting clofibrate, a compound used in the prior art to lower serum cholesterol and serum triglyceride levels. The clofibrate was administered as a suspension in an aqueous 1% solution of carboxymethylcellulose. However, unlike the compounds of the present invention which were administered at a dosage of 20 mg/kg day, ip, this compound was administered at the elevated concentration of 150 mg/kg day, ip.

Experiment [2] has as its system serum triglycerides. Put plainly: Testing of Normal Mice: serum triglycerides (BioDynamics kit), Example 7. To be noted: Mus musculus, 384 h; 20 mg/kg/day ip, day 16, ± SD. As to the method: as §1, §2, §3
For experiment [3], the system named is serum cholesterol. The experiment in a line: Hypolipidemic Activity of Compounds 1 and 10-33, Example 13: serum cholesterol. To be noted: Mus musculus, 20 mg/kg/day ip. As to the method: (§4) Compounds 1 and 10-33, identified below in Table 11, were suspended by homogenation in a 1% aqueous solution of carboxymethylcellulose (CMC) such that a 0.2 ml dosage supplied a concentration of 20 mg/kg of the active compounds. The suspending agent, the 1% aqueous solution of CMC, was utilized as a control, applied in the same quantity, 0.2 ml. CF1 male mice, maintained in groups of six, were fed Wayne Blox [trademark] laboratory animal show ad libitum with water. The mice, which each weighed approximately 25 g, were administered the drugs interperitoneally at approximately the same time. On days 9 and 16 approximately […] of blood was taken from each of the animals by tail bleeding. After centrifugation to obtain serum, 25 microliter samples were assayed for total cholesterol utilizing the method of Ness et al. Serum triglyicerides were assayed, using a commercially available BioDynamics/bmc triglyiceride kit, on blood collected on the 16th day. By comparison to standards the milligram percent of cholesterol and milligram per deciliter concentration of triglicerides were calculated. Treated values were expressed as a percent of the level of the control animals plus or minus the standard deviation. The "T" values were obtained using the Student's "t" test.

Experiment [4] relates to serum triglycerides. The experiment in a line: Hypolipidemic Activity of Compounds 1 and 10-33, Example 13: serum triglycerides. The following applies: Mus musculus, 384 h; 20 mg/kg/day ip, day 16, ± SD; read-out: Serum Triglyceride as a function of control, 16 Day. As to the method: as §4
[5] abbreviates: 216 h, day 9, ± SD, read-out: Serum Cholesterol Control, % Day 9.
The mark [6] stands for this setting: 384 h, day 16, ± SD, read-out: Serum Cholesterol Control, % Day 16.
Setting [7] is: 216 h, day 9, ± SD, read-out: Serum Cholesterol as a function of control, 9 Day.
Setting [8] is: 384 h, day 16, ± SD, read-out: Serum Cholesterol as a function of control, 16 Day.

Regarding `O=C1NCc2ccccc2-c2ccccc21` [Compound 2, 3,4,5,6-dibenzohomopiperidin-2-one], the figures for the response vs control in vivo at 20 mg/kg in the experiment on serum cholesterol [1] (setting [5]), in the experiment with serum cholesterol [1] (setting [6]) and in the experiment on serum triglycerides [2] were 84 ± 6%, 49 ± 4% and 73 ± 5%, respectively.

With `CN1Cc2ccccc2-c2ccccc2C1` [Compound 4, 2-methyl-3,4,5,6-dibenzohomo-piperidine], the response vs control in vivo at 20 mg/kg in the experiment with serum cholesterol [1] (setting [5]) was determined as 75 ± 6%; in the experiment with serum cholesterol [1] (setting [6]) it was 61 ± 5%; in the experiment with serum triglycerides [2], 66 ± 6%.

Regarding `CCN1Cc2ccccc2-c2ccccc2C1` [Compound 5, 2-ethyl-3,4,5,6-dibenzohomopiperidine], the response vs control in vivo at 20 mg/kg in the experiment with serum cholesterol [1] (setting [5]) came out at 67 ± 5%; in the experiment with serum cholesterol [1] (setting [6]), 59 ± 4%; in the experiment on serum triglycerides [2], 60 ± 4%.

As for `CCCN1Cc2ccccc2-c2ccccc2C1` [Compound 6, 2-propyl-3,4,5,6-dibenzohomopiperidine], the response vs control in vivo at 20 mg/kg with serum cholesterol [1] (setting [5]) came out at 78 ± 6%; in the experiment on serum cholesterol [1] (setting [6]), 65 ± 5%; in the experiment with serum triglycerides [2], 73 ± 6%.

As to `Cn1c(=O)c2ccccc2c2ccccc2c1=O` [Compound 10, N-methyldiphenimide], the response vs control in vivo at 20 mg/kg in the experiment with serum cholesterol [3] (setting [7]) stood at 64 ± 7%; in the experiment on serum cholesterol [3] (setting [8]), 63 ± 5%; with serum triglycerides [4], 67 ± 6%.

On to `CCn1c(=O)c2ccccc2c2ccccc2c1=O` [Compound 11, N-ethyldiphenimide], for which the response vs control in vivo at 20 mg/kg with serum cholesterol [3] (setting [7]) worked out at 64 ± 6%; with serum cholesterol [3] (setting [8]), 62 ± 5%; in the experiment with serum triglycerides [4], 66 ± 7%.

Regarding `CCCn1c(=O)c2ccccc2c2ccccc2c1=O` [Compound 12, N-propyldiphenimide], the response vs control in vivo at 20 mg/kg in the experiment with serum cholesterol [3] (setting [7]) was 69 ± 7%; in the experiment on serum cholesterol [3] (setting [8]), 66 ± 6%; in the experiment with serum triglycerides [4], 57 ± 5%.

Consider `CCCCn1c(=O)c2ccccc2c2ccccc2c1=O` [Compound 13, N-butyldiphenimide], for which the response vs control in vivo at 20 mg/kg worked out at 78 ± 7% in the experiment with serum cholesterol [3] (setting [7]), 77 ± 10% in the experiment on serum cholesterol [3] (setting [8]) and 52 ± 5% in the experiment on serum triglycerides [4].

`CCCCCn1c(=O)c2ccccc2c2ccccc2c1=O` [Compound 14, N-pentyldiphenimide]: the figures for the response vs control in vivo at 20 mg/kg in the experiment on serum cholesterol [3] (setting [7]), in the experiment on serum cholesterol [3] (setting [8]) and with serum triglycerides [4] were 90 ± 8%, 69 ± 4% and 60 ± 5%, respectively.

For the compound `O=c1c2ccccc2c2ccccc2c(=O)n1Cc1ccccc1` [Compound 15, N-benzyldiphenimide], the response vs control in vivo at 20 mg/kg in the experiment on serum cholesterol [3] (setting [7]) came to 91 ± 7%; in the experiment with serum cholesterol [3] (setting [8]), 61 ± 6%; with serum triglycerides [4], 77 ± 7%.

With `CC(=O)CCn1c(=O)c2ccccc2c2ccccc2c1=O` [Compound 16, N-(3-Oxobutyl)-Diphenimide], the figures for the response vs control in vivo at 20 mg/kg in the experiment on serum cholesterol [3] (setting [7]), with serum cholesterol [3] (setting [8]) and with serum triglycerides [4] were 77 ± 5%, 77 ± 7% and 90 ± 4%, respectively.

As for `O=C(O)CCn1c(=O)c2ccccc2c2ccccc2c1=O` [Compound 17, N-(2-Carboxyethyl)-Diphenimide], the results for the response vs control in vivo at 20 mg/kg with serum cholesterol [3] (setting [7]), in the experiment with serum cholesterol [3] (setting [8]) and in the experiment on serum triglycerides [4] were 88 ± 11%, 84 ± 6% and 75 ± 10%, respectively.

As for `O=c1c2ccccc2c2ccccc2c(=O)n1-c1ccccc1` [Compound 18, N-phenyldiphenimide], the response vs control in vivo at 20 mg/kg was 97 ± 8% in the experiment on serum cholesterol [3] (setting [7]), 67 ± 6% in the experiment with serum cholesterol [3] (setting [8]) and 62 ± 6% with serum triglycerides [4].

Take `COc1ccccc1-n1c(=O)c2ccccc2c2ccccc2c1=O` [Compound 19, N-(2-methoxy)-phenyldiphenimide]: the response vs control in vivo at 20 mg/kg came to 80 ± 8% with serum cholesterol [3] (setting [7]), 67 ± 5% in the experiment with serum cholesterol [3] (setting [8]) and 68 ± 5% in the experiment with serum triglycerides [4].

On to `COc1cccc(-n2c(=O)c3ccccc3c3ccccc3c2=O)c1` [Compound 20, N-(3-methoxy)phenyldiphenimide], for which the values for the response vs control in vivo at 20 mg/kg with serum cholesterol [3] (setting [7]), in the experiment with serum cholesterol [3] (setting [8]) and with serum triglycerides [4] were 84 ± 7%, 74 ± 7% and 72 ± 8%, respectively.

`COc1ccc(-n2c(=O)c3ccccc3c3ccccc3c2=O)cc1` [Compound 21, N-(4-methoxy)-phenyldiphenimide]: the response vs control in vivo at 20 mg/kg amounted to 91 ± 7% in the experiment on serum cholesterol [3] (setting [7]), 84 ± 8% in the experiment with serum cholesterol [3] (setting [8]) and 74 ± 6% in the experiment on serum triglycerides [4].

In the case of `Cc1ccccc1-n1c(=O)c2ccccc2c2ccccc2c1=O` [Compound 22, N-(2-methyl)-phenyldiphenimide], the response vs control in vivo at 20 mg/kg came to 78 ± 7% with serum cholesterol [3] (setting [7]), 61 ± 6% in the experiment with serum cholesterol [3] (setting [8]) and 65 ± 6% in the experiment with serum triglycerides [4].

With `Cc1cccc(-n2c(=O)c3ccccc3c3ccccc3c2=O)c1` [Compound 23, N-(3-methyl)-phenyldiphenimide], the response vs control in vivo at 20 mg/kg in the experiment with serum cholesterol [3] (setting [7]) stood at 78 ± 7%; with serum cholesterol [3] (setting [8]) it was 76 ± 7%; with serum triglycerides [4], 63 ± 6%.

Turning to `Cc1ccc(-n2c(=O)c3ccccc3c3ccccc3c2=O)cc1` [Compound 24, N-(4-methyl)-phenyldiphenimide], the response vs control in vivo at 20 mg/kg in the experiment on serum cholesterol [3] (setting [7]) was 57 ± 7%; with serum cholesterol [3] (setting [8]), 52 ± 6%; in the experiment with serum triglycerides [4], 60 ± 7%.

On to `CCc1ccccc1-n1c(=O)c2ccccc2c2ccccc2c1=O` [Compound 25, N-(2-ethyl)phenyldiphenimide], for which the figures for the response vs control in vivo at 20 mg/kg in the experiment on serum cholesterol [3] (setting [7]), in the experiment with serum cholesterol [3] (setting [8]) and in the experiment on serum triglycerides [4] were 82 ± 8%, 73 ± 6% and 84 ± 7%, respectively.

Regarding `CCc1cccc(-n2c(=O)c3ccccc3c3ccccc3c2=O)c1` [Compound 26, N-(3-ethyl)-phenyldiphenimide], the response vs control in vivo at 20 mg/kg in the experiment on serum cholesterol [3] (setting [7]) came to 95 ± 7%; with serum cholesterol [3] (setting [8]) it was 77 ± 7%; in the experiment on serum triglycerides [4] it was 66 ± 6%.

For `CCc1ccc(-n2c(=O)c3ccccc3c3ccccc3c2=O)cc1` [Compound 27, N-(4-ethyl)-phenyldiphenimide], the response vs control in vivo at 20 mg/kg in the experiment on serum cholesterol [3] (setting [7]) amounted to 101 ± 8%; in the experiment on serum cholesterol [3] (setting [8]) it was 71 ± 5%; with serum triglycerides [4], 70 ± 7%.

For `O=c1c2ccccc2c2ccccc2c(=O)n1-c1ccccc1Cl` [Compound 28, N-(2-chloro)-phenyldiphenimide], the response vs control in vivo at 20 mg/kg in the experiment on serum cholesterol [3] (setting [7]) came to 67 ± 6%; in the experiment with serum cholesterol [3] (setting [8]), 64 ± 5%; with serum triglycerides [4], 65 ± 6%.

For the compound `O=c1c2ccccc2c2ccccc2c(=O)n1-c1cccc(Cl)c1` [Compound 29, N-(3-chloro)-phenyldiphenimide], the response vs control in vivo at 20 mg/kg in the experiment on serum cholesterol [3] (setting [7]) turned out to be 81 ± 8%; in the experiment with serum cholesterol [3] (setting [8]), 78 ± 8%; in the experiment with serum triglycerides [4] it was 87 ± 7%.

As to `O=c1c2ccccc2c2ccccc2c(=O)n1-c1ccc(Cl)cc1` [Compound 30, N-(4-chloro)phenyldiphenimide], the response vs control in vivo at 20 mg/kg with serum cholesterol [3] (setting [7]) was determined as 74 ± 6%; in the experiment on serum cholesterol [3] (setting [8]), 67 ± 5%; in the experiment on serum triglycerides [4], 64 ± 4%.

Take `CC(=O)c1ccccc1-n1c(=O)c2ccccc2c2ccccc2c1=O` [Compound 31, N-(2-acetyl)-phenyldiphenimide]: the response vs control in vivo at 20 mg/kg was 79 ± 7% in the experiment with serum cholesterol [3] (setting [7]), 76 ± 6% in the experiment on serum cholesterol [3] (setting [8]) and 58 ± 6% in the experiment on serum triglycerides [4].

For the compound `CC(=O)c1cccc(-n2c(=O)c3ccccc3c3ccccc3c2=O)c1` [Compound 32, N-(3-acetyl)-phenyldiphenimide], the response vs control in vivo at 20 mg/kg came to 77 ± 8% in the experiment with serum cholesterol [3] (setting [7]), 68 ± 6% in the experiment with serum cholesterol [3] (setting [8]) and 58 ± 4% with serum triglycerides [4].

For the compound `CC(=O)c1ccc(-n2c(=O)c3ccccc3c3ccccc3c2=O)cc1` [Compound 33, N-(4-acetyl)-diphenimide], the response vs control in vivo at 20 mg/kg in the experiment with serum cholesterol [3] (setting [7]) was 80 ± 5%; in the experiment on serum cholesterol [3] (setting [8]) it was 73 ± 5%; in the experiment on serum triglycerides [4] it was 70 ± 5%.
